Experimental data reported in patent US20260226031A1, “NOVEL COMPOUNDS” (NRG THERAPEUTICS LTD., priority 2023, published 2026).

Legend:
[1] = test system: mPTP; experiment: mPTP activity (Ca2+ retention) assay in isolated rat liver mitochondria; assay type: biochemical; settings: isolated rat liver mitochondria; Fluo5N fluorescence at 10 min after CaCl2 (75 μM) bolus; DMSO 0%, 5 μM cyclosporin A 100% inhibition
Excerpt: Pharmacological inhibition or modulation of the mPTP can be measured in well characterised ‘Ca^2+ retention’ assays performed in isolated mitochondria. In vitro, isolated mitochondria rapidly sequester exogenous Ca^2+ until the intramitochondrial Ca^2+ concentration reaches the threshold for mPTP activation. Once the pore is activated, mitochondrial integrity is compromised and the stored Ca^2+ is released. The distribution of Ca^2+ between extra- and intra-mitochondrial compartments can be measured in real time with the use of membrane-impermeant Ca^2+ sensitive fluorescent dyes. Depending on the configuration of the assay, inhibition or modulation of the mPTP either delays the opening of the pore or increases the concentration of Ca^2+ required to induce mPTP opening.
MPTP activity was measured in mitochondria freshly isolated from female Sprague Dawley (250 to 300 gram) rat livers using the following method. Cervical dislocation was performed on the rat. The liver was then perfused in-situ with ~40 ml cold Dulbecco's Phosphate Buffered Saline (DPBS) prior to dissection and transferred into 30 ml Isolation Buffer (250 mM Sucrose, 10 mM KCl, 1 mM EGTA, 1 mM EDTA, 25 mM HEPES, adjusted to pH 7.5 with 1M NaOH). Each lobe of the liver was then removed from the buffer, minced using tweezers and a scalpel into ~5 mm pieces then transferred into a 50 ml Potterton dounce homogenization tube on ice containing 30 ml ice-cold centrifugation buffer (300 mM Trehalose, 25 mM HEPES, 1 mM EGTA, 1 mM EDTA, 10 mM KCl, adjusted to pH 7.5 with 1M NaOH and supplemented with 0.1% bovine serum albumin (BSA) and complete protease inhibitor cocktail (one tablet of inhibitor per 50 mls of buffer). Homogenisation was carried out using a Teflon® pestle at 1800 rpm. The slurry was centrifuged at 800 g for 10 min at 4° C., then the supernatant centrifuged at 10,000 g for 10 min. The pellet was washed once with FLIPR assay buffer (75 mM Mannitol, 25 mM Sucrose, 5 mM Potassium Phosphate Monobasic, 20 mM Tris base, 100 mM KCl, 0.1% BSA adjusted to pH 7.4 with 5M HCl) centrifuged again, then resuspended in FLIPR assay buffer to a concentration of 8.8 mg/ml protein.
Tested compounds (10 mM stock in DMSO) were serially diluted in DMSO in half log steps to generate 10 test concentrations (final concentrations in assay 30 μM to 1 nM). An intermediate dilution of 5 μl DMSO samples into 247 μl FLIPR assay buffer was carried out prior to transfer of 5 μl into duplicate wells of a 384 well polypropylene assay plate. Control wells were 0.5% (v/v) DMSO and 5 μM cyclosporin A.
A stock mitochondria/Fluo5N assay solution was prepared in 5.6 ml FLIPR assay buffer (at RT) supplemented with succinate disodium salt (10 mM), rotenone (1 μM), Fluo5N pentapotassium salt (2 μM) and 1 ml mitochondria suspension, then transferred (15 μl) into the assay plate containing test compounds and incubated for 10 min at RT. Assay plates were processed for fluorescence detection on either a FLIPR Tetra (Molecular Devices) or CLARIOstar (BMG) plate reader. For kinetic fluorescence detection on the FLIPR, dye fluorescence was measured every 3 sec for a total of 10 min. After 12 sec, a 2.5 μl bolus of CaCl2 (75 μM) was added from a source plate containing 675 μM CaCl2 in FLIPR assay buffer. Alternatively, the 2.5 μl addition of CaCl2 was performed using a Viaflow 384, plates were incubated at RT for 10 min, and dye fluorescence measured after 10 min on the CLARIOstar plate reader. pIC50 values for tested compounds were calculated using the fluorescence value collected at the 10 min timepoint on either plate reader, with % inhibition calculated using the DMSO control and cyclosporin A values as 0 and 100% respectively.

[2] = test system: mPTP; experiment: mPTP activity (Ca2+ retention) assay in isolated rat brain mitochondria; assay type: biochemical; settings: isolated rat brain mitochondria; Fluo5N fluorescence at 10 min after Ca2+ (75 μM) bolus
Procedure: MPTP activity was measured in brain mitochondria freshly isolated from female Sprague Dawley (250 to 300 gram) rats. Anaesthetised rats were perfused in-situ with ~40 ml cold Dulbecco's Phosphate Buffered Saline (DPBS), then brains dissected and transferred into 30 ml Isolation Buffer (225 mM mannitol, 75 mM sucrose, 1 mM EGTA, adjusted to pH 7.4 with 1M NaOH). The brain was minced using tweezers and a scalpel into ~5 mm pieces then transferred into a 50 ml Potterton Dounce homogenization tube on ice containing 10 ml ice-cold isolation buffer (as above with addition of Complete Protease inhibitor; 1 tablet per 50 ml buffer). Homogenisation was carried out using a Teflon® pestle at 1800 rpm. The slurry was centrifuged at 2000 g for 10 min at 4° C., then the supernatant centrifuged at 12,000 g for 9 min. The pellet was resuspended with a dounce homogeniser in isolation buffer as above but with the addition of 0.02% digitonin, centrifuged at 12,000 g for 11 min and finally resuspended in 5 ml modified isolation buffer (as above but with EGTA reduced to 0.1 mM).
Test compounds were prepared in 384 well polypropylene assay plates as described above for the liver mitochondria assay. A stock mitochondria/Fluo5N assay solution was prepared in 5.6 ml assay buffer (120 mM mannitol, 40 mM MOPS, 5 mM KH2PO4, 60 mM KCl, 10 mM pyruvate, 2 mM malate, 2 mM MgCl2, 20 μM ADP, 1.26 μM oligomycin A, adjusted to pH 7.4) supplemented with Fluo5N pentapotassium salt (2 μM) and 1 ml mitochondria suspension, then transferred (15 μl) into the assay plate containing test compounds and incubated for 10 min at RT. Assay plates were then transferred to a FLIPR Tetra plate reader (Molecular Devices). Dye fluorescence was then measured every 3 sec for a total of 10 min.

Row | SMILES | mPTP Rat liver pIC50* [1] | mPTP Rat brain pIC50 [2]
1 | O=C(c1cc(O)no1)N1CC(c2ccc(F)c(F)c2)C2(CCC2)C1 (single isomer, unassigned) [Example 46a, (8-(3,4-difluorophenyl)-6-azaspiro[3.4]octan-6-yl)(3-hydroxyisoxazol-5-yl)methanone] | 6.28 | 7.44
2 | O=C(c1cncc(=O)[nH]1)N1CC(c2cccc(F)c2F)C2(CCC2)C1 (single isomer, unassigned) [Example 43a, 6-(8-(2,3-difluorophenyl)-6-azaspiro[3.4]octane-6-carbonyl)pyrazin-2(1H)-one] | 6.56 | 7.43
3 | O=C(c1noc(=O)[nH]1)N1CC(c2cccc(F)c2)C2(CCC2)C1 (single isomer, unassigned) [Example 49b, 3-(8-(3-fluorophenyl)-6-azaspiro[3.4]octane-6-carbonyl)-1,2,4-oxadiazol-5(4H)-one] |  | <4.52
4 | O=C(c1cncc(=O)[nH]1)N1CC(c2ccc(Br)cc2)C2(CCC2)C1 (single isomer, unassigned) [Example 29a, 6-(8-(4-bromophenyl)-6-azaspiro[3.4]octane-6-carbonyl)pyrazin-2(1H)-one] | 4.59 | 6.2
5 | O=C(c1cncc(=O)[nH]1)N1CC(c2ccc(F)c(F)c2)C2(CCC2)C1 (single isomer, unassigned) [Example 45b, 6-(8-(3,4-difluorophenyl)-6-azaspiro[3.4]octane-6-carbonyl)pyrazin-2(1H)-one] | <4.52 | 6.78
6 | Cn1nc(C(=O)N2CC(c3ccccc3)C3(CCC3)C2)[nH]c1=O (stereo not drawn) [Example 5a, 2-methyl-5-(8-phenyl-6-azaspiro[3.4]octane-6-carbonyl)-2,4-dihydro-3H-1,2,4-triazol-3-one] | 5.04 | 
7 | O=C(c1cc(O)no1)N1CC(c2cccc(F)c2F)C2(CCC2)C1 (single isomer, unassigned) [Example 39a, (8-(2,3-difluorophenyl)-6-azaspiro[3.4]octan-6-yl)(3-hydroxyisoxazol-5-yl)methanone] | 6.47 | 7.41
8 | O=C(c1cc(O)no1)N1CC(c2ccccc2)C2(CCC2)C1 (single isomer, unassigned) [Example 23b, (3-hydroxyisoxazol-5-yl)(8-phenyl-6-azaspiro[3.4]octan-6-yl)methanone] | <4.52 | <4.52
9 | Cn1nc(C(=O)N2C[C@H](c3ccccc3)C3(CCC3)C2)[nH]c1=O (single isomer, unassigned) [Example 5c] | <4.52 | <4.52
10 | COc1ccc(C2CN(C(=O)c3cncc(=O)[nH]3)CC23CCC3)cc1 (single isomer, unassigned) [Example 28b, 6-(8-(4-methoxyphenyl)-6-azaspiro[3.4]octane-6-carbonyl)pyrazin-2(1H)-one] | <4.52 | <4.52
11 | O=C(c1noc(=O)[nH]1)N1CC(c2ccc(F)cc2)C2(CCC2)C1 (single isomer, unassigned) [Example 41a, 3-(8-(4-fluorophenyl)-6-azaspiro[3.4]octane-6-carbonyl)-1,2,4-oxadiazol-5(4H)-one] | 5.95 | 7.19
12 | CC1CN(C(=O)c2cncc(=O)[nH]2)CC1c1ccccc1 (stereo not drawn) [Example 13, 6-(3-methyl-4-phenylpyrrolidine-1-carbonyl)pyrazin-2(1H)-one] | 4.55 | 
13 | O=C(c1cc(O)ccn1)N1CC(c2ccccc2)C2(CCC2)C1 (stereo not drawn) [Example 3, (4-hydroxypyridin-2-yl)(8-phenyl-6-azaspiro[3.4]octan-6-yl)methanone] | 5.14 | 
14 | O=C(c1noc(=O)[nH]1)N1CC(c2cccc(F)c2)C2(CCC2)C1 (single isomer, unassigned) [Example 49a, 3-(8-(3-fluorophenyl)-6-azaspiro[3.4]octane-6-carbonyl)-1,2,4-oxadiazol-5(4H)-one] | 6.52 | 
15 | O=C(c1cncc(O)c1)N1CC(c2ccccc2)C2(CCC2)C1 (single isomer, unassigned) [Example 1c, (5-hydroxypyridin-3-yl)(8-phenyl-6-azaspiro[3.4]octan-6-yl)methanone] | <4.52 | 

Results, then the compound that gave them:

Row | mPTP Rat liver pIC50* [1] | mPTP Rat brain pIC50 [2] | SMILES
16 | 4.58 | <4.52 | O=C(c1cncc(=O)[nH]1)N1CC(c2cccc(Cl)c2)C2(CCC2)C1 (single isomer, unassigned) [Example 31b, 6-(8-(3-chlorophenyl)-6-azaspiro[3.4]octane-6-carbonyl)pyrazin-2(1H)-one]
17 | <4.52 | <4.52 | O=C(c1cccc(=O)[nH]1)N1CC(c2ccccc2)C2(CCC2)C1 (single isomer, unassigned) [Example 26b, 6-(8-phenyl-6-azaspiro[3.4]octane-6-carbonyl)pyridin-2(1H)-one]
18 | 6.02 | 6.75 | O=C(c1noc(=O)[nH]1)N1CC(c2ccccc2)C2(CCC2)C1 (stereo not drawn) [Example 24, 3-[8-Phenyl-6-azaspiro[3.4]octane-6-carbonyl]-4H-1,2,4-oxadiazol-5-one]
19 | 5.63 | 7.33 | O=C(c1noc(=O)[nH]1)N1CC(c2cccc(F)c2F)C2(CCC2)C1 (single isomer, unassigned) [Example 44a, 3-(8-(2,3-difluorophenyl)-6-azaspiro[3.4]octane-6-carbonyl)-1,2,4-oxadiazol-5(4H)-one]
20 | 6.17 | 7.22 | O=C(c1cncc(=O)[nH]1)N1CC(c2cccc(Cl)c2)C2(CCC2)C1 (single isomer, unassigned) [Example 31a, 6-(8-(3-chlorophenyl)-6-azaspiro[3.4]octane-6-carbonyl)pyrazin-2(1H)-one]
21 | <4.52 |  | O=C(c1cncc(=O)[nH]1)N1CC2(CCC2)C1c1ccccc1 (stereo not drawn) [Example 12, 6-(1-phenyl-2-azaspiro[3.3]heptane-2-carbonyl)pyrazin-2(1H)-one]
22 | <4.52 |  | O=C(c1cnn[nH]1)N1CC(c2ccccc2)C2(CCC2)C1 (single isomer, unassigned) [Example 14b, 8-phenyl-6-(3H-1,2,3-triazole-4-carbonyl)-6-azaspiro[3.4]octane]
